System: platelet ADP receptors
Experiment: ARB binding assay (platelet ADP receptor binding, [3H]2-MeS-ADP)
Parameters: species or system human
Conditions: relative activities of selected compounds in the ARB binding assay
Experimental: Utilizing the second assay the potency of inhibition of such compounds with respect to [^3H]2-MeS-ADP binding to whole platelets is determined. [^3H]2-MeS-ADP binding experiments are routinely performed with outdated human platelets collected by standard procedures at hospital blood banks. Apyrase-washed outdated platelets are prepared as follows (all steps at room temperature, if not indicated otherwise):
Outdated platelet suspensions are diluted with 1 volume of CGS and platelets pelleted by centrifugation at 1900×g for 45 minutes. Platelet pellets are resuspended at 3–6×10^9 platelets/ml in CGS containing 1 U/ml apyrase (grade V, Sigma, St. Louis, Mo.) and incubated for 15 minutes at 37° C. After centrifugation at 730×g for 20 minutes, pellets are resuspended in Hepes-Tyrode's buffer containing 0.1% BSA (Sigma, St. Louis, Mo.) at a concentration of 6.66×10^8 platelets/ml. Binding experiments are performed after >45 minutes resting of the platelets.
Alternatively, binding experiments are performed with fresh human platelets prepared as described in I.(Inhibition of ADP-Mediated Platelet Aggregation in vitro), except that platelets are resuspended in Hepes-Tyrode's buffer containing 0.1% BSA (Sigma, St. Louis, Mo.) at a concentration of 6.66×10^8 platelets/ml. Very similar results are obtained with fresh and outdated platelets.
A platelet ADP receptor binding assay using the tritiated potent agonist ligand [^3H]2-MeS-ADP (Jantzen, H. M. et al. (1999) Thromb. Hemost. 81:111–117) has been adapted to the 96-well microtiter format. In an assay volume of 0.2 ml Hepes-Tyrode's buffer with 0.1% BSA and 0.6% DMSO, 1×10^8 apyrase-washed platelets are preincubated in 96-well flat bottom microtiter plates for 5 minutes with serial dilutions of test compounds before addition of 1 nM [^3H]2-MeS-ADP ([^3H]2-methylthioadenosine-5′-diphosphate, ammonium salt; specific activity 48–49 Ci/mmole, obtained by custom synthesis from Amersham Life Science, Inc., Arlington Heights, Ill., or NEN Life Science Products, Boston, Mass.). Total binding is determined in the absence of test compounds. Samples for nonspecific binding may contain 10^−5 M unlabelled 2-MeS-ADP (RBI, Natick, Mass.). After incubation for 15 minutes at room temperature, unbound radioligand is separated by rapid filtration and two washes with cold (4–8° C.) Binding Wash Buffer (10 mM Hepes pH 7.4, 138 mM NaCl) using a 96-well cell harvester (Minidisc 96, Skatron Instruments, Sterling, Va.) and 8×12 GF/C glassfiber filtermats (Printed Filtermat A, for 1450 Microbeta, Wallac Inc., Gaithersburg, Md.). The platelet-bound radioactivity on the filtermats is determined in a scintillation counter (Microbeta 1450, Wallac Inc., Gaithersburg, Md.). Specific binding is determined by subtraction of non-specific binding from total binding, and specific binding in the presence of test compounds is expressed as % of specific binding in the absence of test compounds dilutions.

| SMILES | Relative Activity |
| --- | --- |
| CCc1cc2c(N3CCN(C(=O)C(F)(F)F)CC3)ncnc2s1 [Example 55, 1-[4-(6-ethylthiopheno[3,2-e]pyrimidin-4-yl)piperazinyl]-2,2,2-trifluoroethan-1-one] | +++ (<10 micromolar) |
| CCc1cc2c(N3CCN(C(=O)c4ccncc4)CC3)ncnc2s1 [Example 362, [4-(6-Ethyl-thieno[2,3-d]pyrimidin-4-yl)-piperazin-1-yl]-pyridin-4-yl-methanone] | + (>20 micromolar) |
| CCc1cc2c(N3CCN(C(=O)Cc4ccccc4)CC3)ncnc2s1 [Example 2, 1-[4-(6-ethylthiopheno[3,2-e]pyrimidin-4-yl)piperazinyl]-2-phenylethan-1-one] | +++ (<10 micromolar) |
| CCc1cc2c(N3CCN(C(=O)Cc4ccccc4)CC3)nc(SC)nc2s1 [Example 169, 1-[4-(6-ethyl-2-methylthiothiopheno[3,2-e]pyrimidin-4-yl)piperazinyl]-2-phenylethan-1-one] | +++ (<10 micromolar) |
| CCc1cc2c(N3CCN(C(=O)/C=C/c4ccsc4)CC3)ncnc2s1 [Example 320, 1-[4-(6-Ethyl-thieno[2,3-d]pyrimidin-4-yl)-piperazin-1-yl]-3-thiophen-3-yl-propenone] | + (>20 micromolar) |
| CCc1cc2c(N3CCN(C(=O)CCCCNC(=O)c4ccccc4)CC3)ncnc2s1 [Example 313, N-{5-[4-(6-Ethyl-thieno[2,3-d]pyrimidin-4-yl)-piperazin-1-yl]-5-oxo-pentyl}-benzamide] | ++ (10–20 micromolar) |
| CCc1cc2c(N3CCN(C(=O)c4ccc5ccccc5n4)CC3)ncnc2s1 [Example 453, [4-(6-Ethyl-thieno[2,3-d]pyrimidin-4-yl)-piperazin-1-yl]-quinolin-2-yl-methanone] | + (>20 micromolar) |
| CCc1cc2c(N3CCN(C(=O)[C@H](C)c4ccccc4)CC3)ncnc2s1 [Example 349, 1-[4-(6-Ethyl-thieno[2,3-d]pyrimidin-4-yl)-piperazin-1-yl]-2-phenyl-propan-1-one] | + (>20 micromolar) |
| O=C(Cc1ccccc1)N1CCN(c2ncnc3sc(Cc4ccccc4)cc23)CC1 [Example 112, 2-phenyl-1-{4-[6-benzylthiopheno[3,2-e]pyrimidin-4-yl]piperazinyl} ethan-1-one] | +++ (<10 micromolar) |
| CCc1cc2c(N3CCN(C(=O)C=C(C(F)(F)F)C(F)(F)F)CC3)ncnc2s1 [Example 59, 1-[4-(6-ethylthopheno[3,2-e]pyrimidin-4-yl)pperazinyl]-4,4,4-trifluoro-3-(trifluoromethyl)but-2-en-1-one] | + (>20 micromolar) |
| CCc1cc2c(N3CCN(C(=O)C#Cc4ccccc4)CC3)ncnc2s1 [Example 332, 1-[4-(6-Ethyl-thieno[2,3-d]pyrimidin-4-yl)-piperazin-1-yl]-3-phenyl-propynone] | ++ (10–20 micromolar) |
| CCc1cc2c(N3CCN(C(=O)Cc4ccccc4)CC3)nc(C)nc2s1 [Example 153, 1-[4-(6-ethyl-2-methylthiopheno[3,2-e]pyrimidin-4-yl)piperazinyl]-2-phenylethan-1-one] | +++ (<10 micromolar) |
| CCc1cc2c(N3CCN(C(=O)c4ccc(-c5ccccc5)cc4)CC3)ncnc2s1 [Example 71, 4-(6-ethylthiopheno[3,2-e]pyrimidin-4-yl)piperazinyl 4-phenylphenyl ketone] | +++ (<10 micromolar) |
| O=C(CC(F)(F)F)N1CCN(c2ncnc3sc(-c4ccccc4)cc23)CC1 [Example 111, 3,3,3-trifluoro-1-[4-(6-phenylthiopheno[3,2-e]pyrimidin-4-yl)piperazinyl]propan-1-one] | ++ (10–20 micromolar) |
| CCc1cc2c(N3CCN(C(=O)Cc4ccncc4)CC3)ncnc2s1 [Example 67, 1-[4-(6-ethylthiopheno[3,2-e]pyrimidin-4-yl)piperazinyl]-2-(4-pyridyl)ethan-1-one] | ++ (10–20 micromolar) |
| CCc1cc2c(N3CCN(C(=O)CCCCOc4ccccc4)CC3)ncnc2s1 [Example 305, 1-[4-(6-Ethyl-thieno[2,3-d]pyrimidin-4-yl)-piperazin-1-yl]-5-phenoxy-pentan-1-one] | +++ (<10 micromolar) |
| CC(C)(C)c1cc2c(N3CCN(C(=O)Cc4ccccc4)CC3)ncnc2s1 [Example 106, 1-{4-[6-(tert-butyl)thiopheno[3,2-e]pyrimidin-4-yl]piperazinyl}-2-phenylethan-1-one] | ++ (10–20 micromolar) |
| O=C(Cc1ccccc1)N1CCN(c2ncnc3sc(Br)cc23)CC1 [Example 125, 1-[4-(6-bromothiopheno[3,2-e]pyrimidin-4-yl)piperazinyl]-2-phenylethan-1-one] | +++ (<10 micromolar) |
| CCc1cc2c(N3CCN(C(=O)CN4CCCC(n5nnc6ccccc65)C4)CC3)ncnc2s1 (centres unmarked) [Example 271, 2-(3-Benzotriazol-1-yl-piperidin-1-yl)-1-[4-(6-ethyl-thieno[2,3-d]pyrimidin-4-yl)-piperazin-1-yl]-ethanone] | ++ (10–20 micromolar) |
| CCc1cc2c(N3CCN(C(=O)CCCSc4nccn4-c4ccccc4)CC3)ncnc2s1 [Example 429, 1-[4-(6-Ethyl-thieno[2,3-d]pyrimidin-4-yl)-piperazin-1-yl]-4-(1-phenyl-1H-imidazol-2-ylsulfanyl)-butan-1-one] | + (>20 micromolar) |
| CCc1cc2c(N3CCN(C(=O)CC(F)(F)F)CC3)ncnc2s1 [Example 5, 1-[4-(6-ethylthiopheno[3,2-e]pyrimidin-4-yl)piperazinyl]-3,3,3-trifluoropropan-1-one] | +++ (<10 micromolar) |
| CCc1cc2c(N3CCN(C(=O)CCCCC4CCCCC4)CC3)ncnc2s1 [Example 311, 5-Cyclohexyl-1-[4-(6-ethyl-thieno[2,3-d]pyrimidin-4-yl)-piperazin-1-yl]-pentan-1-one] | + (>20 micromolar) |
| CCc1cc2c(N3CCN(C(=O)CCCn4nnc5ccccc54)CC3)ncnc2s1 [Example 372, 4-Benzotriazol-1-yl-1-[4-(6-Ethyl-thieno[2,3-d]pyrimidin-4-yl)-piperazin-1-yl]-butan-1-one] | ++ (10–20 micromolar) |
| CCOC(=O)c1nc(N2CCN(C(=O)Cc3ccccc3)CC2)c2cc(CC)sc2n1 [Example 236, 6-Ethyl-4-(4-phenylacetyl-piperazin-1-yl)-thieno[2,3-d]pyrimidine-2-carboxylic acid ethyl ester] | +++ (<10 micromolar) |
| CCc1cc2c(N3CCN(C(=O)CCCNc4ncccn4)CC3)ncnc2s1 [Example 430, 1-[4-(6-Ethyl-thieno[2,3-d]pyrimidin-4-yl)-piperazin-1-yl]-4-(pyrimidin-2-ylamino)-butan-1-one] | + (>20 micromolar) |
| CCc1cc2c(N3CCCN(C(=O)CCCOn4nnc5ccccc54)CC3)ncnc2s1 [Example 188, 4-benzotriazolyloxy-1-[4-(6-ethylthiopheno[3,2-e]pyrimidin-4-yl)(1,4-diazaperhydroepinyl)]butan-1-one] | +++ (<10 micromolar) |
| CCc1cc2c(N3CCN(C(=O)[C@@H]4CCC[C@H](Cn5nnc6ccccc65)C4)CC3)ncnc2s1 [Example 279, (3-Benzotriazol-1-ylmethyl-cyclohexyl)-[4-(6-ethyl-thieno[2,3-d]pyrimidin-4-yl)-piperazin-1-yl]-methanone] | +++ (<10 micromolar) |
| CCc1cc2c(N3CCN(C(=O)Cc4ccccc4)CC3)nc(O)nc2s1 [Example 183, 1-[4-(6-ethyl-2-hydroxythiopheno[3,2-e]pyrimidin-4-yl)piperazinyl]-2-phenylethan-1-one] | + (>20 micromolar) |
| CCc1cc2c(N3CCN(C(=O)Cc4ccccc4)CC3C)ncnc2s1 (centres unmarked) [Example 193, 1-[4-(6-ethylthiopheno[3,2-e]pyrimidin-4-yl)-3-methylpiperazinyl]-2-phenylethan-1-one] | +++ (<10 micromolar) |
